{"source": "patent US8258081B2", "about": "“Use of C3 to C14 aliphatic aldehydes, ketones and primary and secondary C3 to C7 aliphatic alcohols to inhibit sprouting of potato tubers” (Washington State University Research Foundation, priority 2007, dated 2012)", "key": {"[1]": {"test_system": "potato tubers", "experiment": "Sprout inhibition by C5 to C7 alcohols, sprout fresh weight 21 days after treatment at 18° C.", "assay_type": "in vivo", "details": "24 h treatment", "method": "(§1) The objective of this study was to determine the metabolites of 3-nonen-2-one (3N2) and trans-2-nonenal (T2N), which are two examples of α,β-unsaturated aldehydes and ketones that inhibit sprouting in potatoes as described in U.S. Pat. No. 6,855,669. Potato tubers were treated with 3N2 or T2N (0.75 mmol/kg tuber) for 24 h in a closed chamber. The chemicals were volatilized from filter paper inside the chamber. The tubers were removed from the treatment chamber and placed at 9° C. for up to 28 days.\nThe objective of this study was to determine the extent to which 1-heptanol, 1-hexanol, 2-heptanol, trans-2-hepten-1-ol, trans-2-hexen-1-ol and 1-pentanol (C5 to C7 alcohols) inhibit sprouting of potato tubers. Tubers were treated separately with 0.25, 0.5, 0.75 or 1 mmol/kg of each alcohol for 24 h as described in Example 1. The treated tubers were placed at 18° C. and sprout fresh weights were measured 21 days after treatment. […] C7 alcohols inhibited sprouting by about 50 to about 100%, depending on the precise treatment."}, "[2]": {"test_system": "Premier Russet tubers", "experiment": "Long term sprout inhibition during storage at 9° C.", "assay_type": "in vivo, potato", "details": "0.75 mmol/kg; for duration of sprout suppression: re-applied between second and third month", "method": "FIG. 4. Effect of trans-2-hexen-1-ol, 2-heptanol, decanal and 3-decanone on sprouting in Premier Russet tubers during long term storage at 9° C.\nThe objective of this study was to determine the extent to which trans-2-hexen-1-ol, 2-heptanol, decanal, and 3-decanone inhibit sprouting during extended storage under typical commercial storage conditions. Premier Russet tubers were treated separately with 0.75 mmol/kg of each compound in 190 L plastic barrels at room temperature. Chemicals were volatilized from filter paper within the barrels which were sealed for 24 hours during application. Tubers were then stored at 9° C. and sampled monthly to determine the amount of sprouting on a per tuber basis. All treatments were re-applied between the second and third month of storage. […] 2-heptanol and decanal suppressed sprouting for 114 days (about 4 months of control). 3-decanone suppressed sprouting for 83 days."}, "[3]": {"test_system": "potato tubers", "experiment": "Sprout inhibition by T2N and its metabolites, sprout fresh weight 21 days after treatment at 19° C.", "assay_type": "in vivo", "details": "for % Inhibition of sprouting: 24 h treatment", "method": "as §1\nThe objective of this study was to determine the extent to which nonanal, 1-nonanol, and trans-2-nonene-1-ol (metabolites of T2N) inhibit sprouting of potato tubers relative to T2N. Tubers were treated separately with 0.25, 0.5 and 0.75 mmol/kg of T2N, nonanal, 1-nonanol, and trans-2-nonene-1-ol for 24 h as described in Example 1. The treated tubers were placed at 19° C. and sprout fresh weights were measured 21 days after treatment. T2N inhibited sprouting (100%) at all concentrations. Nonanal and 1-nonanol inhibited sprouting by 13 to 51%, depending on the compound and the concentration that was used."}, "[4]": {"test_system": "Russet Burbank tubers", "experiment": "Sprout inhibition by mixtures of 3N2 and 2-nonanone, sprout fresh weight 21 days after treatment at 22° C.", "assay_type": "in vivo, potato", "method": "FIG. 3. Effects of 3-nonen-2-one (3N2) in various combinations with 2-nonanone on sprouting of Russet Burbank tubers. The compounds were applied as described in Example 1. Tubers were treated for 24 h, removed from treatment chambers, and placed at 22° C. to sprout for 3 weeks. Sprout fresh weight is expressed as a percentage of control (non-treated), which were 100% sprouted.\nas §1\nThe objective of this study was to determine the efficacy of mixtures of 3N2 and its metabolite, 2-nonanone, on sprout inhibition. Tubers were treated as described in Example 1 with 0 to 0.75 mmol/kg of 3N2 combined factorially with 0 to 0.75 mmol/kg of 2-nonanone. The treated tubers were placed at 22° C. and sprout fresh weights were measured 21 days after treatment. […]"}, "[5]": {"test_system": "potato tubers", "experiment": "Sprout inhibition by 3N2, 2-nonanone and 2-nonanol, sprout fresh weight 21 days after treatment at 18° C.", "assay_type": "in vivo", "details": "for % Inhibition of sprouting: 24 h treatment; for inhibition of sprout growth relative to non-treated controls: 0.5 and 0.75 mmol/kg", "method": "as §1\nTubers were treated separately as described in Example 1 with 0, 0.25, 0.5, and 0.75 mmol/kg of 3N2,2-nonanone, and 2-nonanol. The treated tubers were placed at 18° C. and sprout fresh weights were measured 21 days after treatment."}, "[6]": {"test_system": "potato tubers", "experiment": "Residues and metabolites of 3N2 and T2N in treated potato tubers", "details": "for persistence of metabolite residue: tubers treated with 0.75 mmol/kg parent compound, 9° C., 28 days; for metabolites formed in tubers: tubers treated with 0.75 mmol/kg for 24 h, stored at 9° C. up to 28 days", "method": "FIG. 1. Levels of 3-nonen-2-one, 2-nonanone, and 2-nonanol in tubers initially treated with 0.75 mmol/kg 3-nonen-2-one and stored at 9° C. Content of residues in the outer 20 mm of tuber.\nFIG. 2. Levels of trans-2-nonenal, nonanal, trans-2-nonen-1-ol and 1-nonanol in tubers initially treated with 0.75 mmol/kg trans-2-nonenal and stored at 9° C. Content of residues in the outer 20 mm of tuber.\nas §1\nSamples were taken for analysis of residues and metabolite identification over the 28-day storage period."}, "[7]": {"test_system": "potatoes", "details": "with two applications, table-stock and processing potatoes; cited from earlier work"}}, "data": [{"molecule": "CCCCCC(C)O", "note": "(stereo not drawn) [2-heptanol]", "values": [{"measurement": "% Inhibition of sprouting", "setting": "[1]; 0.25 mmol/kg tubers", "value": 49.4, "unit": "%"}, {"measurement": "% Inhibition of sprouting", "setting": "[1]; 0.50 mmol/kg tubers", "value": 89.0, "unit": "%"}, {"measurement": "% Inhibition of sprouting", "setting": "[1]; 0.75 mmol/kg tubers", "value": 97.7, "unit": "%"}, {"measurement": "duration of sprout suppression", "setting": "[2]", "value": 114, "unit": "days"}]}, {"molecule": "CCCCCCCCCO", "note": "[1-nonanol]", "values": [{"measurement": "% Inhibition of sprouting", "setting": "[3]; 0.25 mmol/kg tubers", "value": 28.3, "unit": "%"}, {"measurement": "% Inhibition of sprouting", "setting": "[3]; 0.5 mmol/kg tubers", "value": 24.5, "unit": "%"}, {"measurement": "% Inhibition of sprouting", "setting": "[3]; 0.75 mmol/kg tubers", "value": 50.9, "unit": "%"}]}, {"molecule": "CCCCCCO", "note": "[1-hexanol]", "values": [{"measurement": "% Inhibition of sprouting", "setting": "[1]; 0.25 mmol/kg tubers", "value": 36.6, "unit": "%"}, {"measurement": "% Inhibition of sprouting", "setting": "[1]; 0.50 mmol/kg tubers", "value": 61.3, "unit": "%"}, {"measurement": "% Inhibition of sprouting", "setting": "[1]; 0.75 mmol/kg tubers", "value": 71.9, "unit": "%"}]}, {"molecule": "CCCCCO", "note": "[1-pentanol]", "values": [{"measurement": "% Inhibition of sprouting", "setting": "[1]; 0.25 mmol/kg tubers", "value": 7.5, "unit": "%"}, {"measurement": "% Inhibition of sprouting", "setting": "[1]; 0.50 mmol/kg tubers", "value": 32.5, "unit": "%"}, {"measurement": "% Inhibition of sprouting", "setting": "[1]; 0.75 mmol/kg tubers", "value": 45.8, "unit": "%"}]}, {"molecule": "CCCCCCCC(=O)CC", "note": "[3-decanone]", "values": [{"measurement": "duration of sprout suppression", "setting": "[2]", "value": 83, "unit": "days"}]}, {"molecule": "CCCCCCCCC=O", "note": "[nonanal]", "values": [{"measurement": "% Inhibition of sprouting", "setting": "[3]; 0.25 mmol/kg tubers", "value": 13.2, "unit": "%"}, {"measurement": "% Inhibition of sprouting", "setting": "[3]; 0.5 mmol/kg tubers", "value": 32.1, "unit": "%"}, {"measurement": "% Inhibition of sprouting", "setting": "[3]; 0.75 mmol/kg tubers", "value": 17.0, "unit": "%"}]}, {"molecule": "CCCCCCCCCC=O", "note": "[decanal]", "values": [{"measurement": "duration of sprout suppression", "setting": "[2]", "value": 114, "unit": "days"}]}, {"molecule": "CCCCCCCC(C)=O", "note": "[2-nonanone]", "values": [{"measurement": "Sprout growth (fresh weight) as % of non-treated tubers", "setting": "[4]; average of 0.5 and 0.75 mmol/kg 2-nonanone", "value": 58, "unit": "%"}, {"measurement": "% Inhibition of sprouting", "setting": "[5]; 0.25 mmol/kg tubers", "value": 77.22, "unit": "%"}, {"measurement": "% Inhibition of sprouting", "setting": "[5]; 0.5 mmol/kg tubers", "value": 97.9, "unit": "%"}, {"measurement": "% Inhibition of sprouting", "setting": "[5]; 0.75 mmol/kg tubers", "value": 98.8, "unit": "%"}, {"measurement": "inhibition of sprout growth relative to non-treated controls", "setting": "[5]", "value": "substantially inhibited sprout growth"}]}, {"molecule": "CCCCCC/C=C/CO", "note": "[trans-2-nonen-1-ol]", "values": [{"measurement": "% Inhibition of sprouting", "setting": "[3]; 0.25 mmol/kg tubers", "value": 8.9, "unit": "%"}, {"measurement": "% Inhibition of sprouting", "setting": "[3]; 0.5 mmol/kg tubers", "value": 62.8, "unit": "%"}, {"measurement": "% Inhibition of sprouting", "setting": "[3]; 0.75 mmol/kg tubers", "value": 31.6, "unit": "%"}, {"measurement": "persistence of metabolite residue", "setting": "[6]", "value": "most persistent metabolite"}]}, {"molecule": "CC(C)OC(=O)Nc1cccc(Cl)c1", "note": "[CIPC, chlorpropham]", "values": [{"measurement": "duration of sprout inhibition / extended storage life", "setting": "[7]", "value": "up to 1 year"}]}, {"molecule": "CCC/C=C/CO", "note": "[trans-2-hexen-1-ol]", "values": [{"measurement": "% Inhibition of sprouting", "setting": "[1]; 0.25 mmol/kg tubers", "value": 96, "unit": "%"}, {"measurement": "% Inhibition of sprouting", "setting": "[1]; 0.50 mmol/kg tubers", "value": 100.0, "unit": "%"}, {"measurement": "% Inhibition of sprouting", "setting": "[1]; 0.75 mmol/kg tubers", "value": 100.0, "unit": "%"}, {"measurement": "damage to the tuber periderm", "setting": "[2]; after 83 days", "value": "excessive damage to the periderm"}, {"measurement": "sprout control", "setting": "[2]; up to 83 days", "value": "sprouts were effectively controlled up to this point"}]}, {"molecule": "CCCCCCCO", "note": "[1-heptanol]", "values": [{"measurement": "% Inhibition of sprouting", "setting": "[1]; 0.25 mmol/kg tubers", "value": 51.8, "unit": "%"}, {"measurement": "% Inhibition of sprouting", "setting": "[1]; 0.50 mmol/kg tubers", "value": 94.0, "unit": "%"}, {"measurement": "% Inhibition of sprouting", "setting": "[1]; 0.75 mmol/kg tubers", "value": 95.7, "unit": "%"}]}, {"molecule": "CCCC/C=C/CO", "note": "[trans-2-hepten-1-ol]", "values": [{"measurement": "% Inhibition of sprouting", "setting": "[1]; 0.25 mmol/kg tubers", "value": 91.7, "unit": "%"}, {"measurement": "% Inhibition of sprouting", "setting": "[1]; 0.50 mmol/kg tubers", "value": 98.7, "unit": "%"}, {"measurement": "% Inhibition of sprouting", "setting": "[1]; 0.75 mmol/kg tubers", "value": 99.4, "unit": "%"}]}, {"molecule": "CCCCCC/C=C/C=O", "note": "[trans-2-nonenal, reference compound]", "values": [{"measurement": "% Inhibition of sprouting", "setting": "[3]; 0.25 mmol/kg tubers", "value": 100, "unit": "%"}, {"measurement": "% Inhibition of sprouting", "setting": "[3]; 0.5 mmol/kg tubers", "value": 100, "unit": "%"}, {"measurement": "% Inhibition of sprouting", "setting": "[3]; 0.75 mmol/kg tubers", "value": 100, "unit": "%"}, {"measurement": "inhibition of sprouting relative to untreated control", "setting": "[3]; over all concentrations (0.25, 0.5 and 0.75 mmol/kg)", "value": 100, "unit": "%"}, {"measurement": "metabolites formed in tubers", "setting": "[6]", "value": "trans-2-nonen-1-ol, nonanal and 1-nonanol"}]}, {"molecule": "CCCCCCCC(C)O", "note": "(stereo not drawn) [2-nonanol]", "values": [{"measurement": "% Inhibition of sprouting", "setting": "[5]; 0.25 mmol/kg tubers", "value": 65.1, "unit": "%"}, {"measurement": "% Inhibition of sprouting", "setting": "[5]; 0.5 mmol/kg tubers", "value": 79.8, "unit": "%"}, {"measurement": "% Inhibition of sprouting", "setting": "[5]; 0.75 mmol/kg tubers", "value": 72.9, "unit": "%"}, {"measurement": "persistence of metabolite residue", "setting": "[6]", "value": "most persistent"}]}, {"molecule": "CCCCCC=CC(C)=O", "note": "[3-nonen-2-one, reference compound]", "values": [{"measurement": "Sprout growth (fresh weight) as % of non-treated tubers", "setting": "[4]; 0.75 mmol/kg 3N2 applied alone", "value": 9, "unit": "%"}, {"measurement": "% Inhibition of sprouting", "setting": "[5]; 0.25 mmol/kg tubers", "value": 99.6, "unit": "%"}, {"measurement": "% Inhibition of sprouting", "setting": "[5]; 0.5 mmol/kg tubers", "value": 99.9, "unit": "%"}, {"measurement": "% Inhibition of sprouting", "setting": "[5]; 0.75 mmol/kg tubers", "value": 99.9, "unit": "%"}, {"measurement": "inhibition of sprout growth relative to non-treated controls", "setting": "[5]", "value": "substantially inhibited sprout growth"}, {"measurement": "metabolites formed in tubers", "setting": "[6]", "value": "2-nonanone and 2-nonanol"}]}]}
